Reference: patent US20070049564A1 (Wyeth, priority 2005, published 2007)
Converted amounts (≈) assume the structure as drawn. Read-outs that look alike come from different tables or passages of the source.

Columns and labels:
E. coli GC 2231 = experiment: MIC, broth microdilution; conditions: Escherichia coli
Description: Antimicrobial susceptibility testing. The in vitro activities of the antibiotics are determined by the broth microdilution method as recommended by the National Committee for Clinical Laboratory Standards (NCCLS) (1). Mueller-Hinton II broth (MHBII)(BBL Cockeysville, Md.) is the medium employed in the testing procedures. Microtiter plates containing serial dilutions of each antimicrobial agent are inoculated with each organism to yield the appropriate density (10^5 CFU/ml) in a 100 μl final volume. The plates are incubated for 18-22 hours at 35° C. in ambient air.
Representative compounds were first incubated in mouse serum for an hour prior to the in vitro testing against a panel of selected gram-positive and gram-negative bacteria strains. All compounds were also pre-incubated in water for an hour prior to testing as control.

E. coli GC 2232 = experiment: MIC, broth microdilution; conditions: Escherichia coli
E. coli GC 2234 = experiment: MIC, broth microdilution; conditions: Escherichia coli
E. coli GC 2272 = experiment: MIC, broth microdilution; conditions: Escherichia coli
E. coli GC 3226 = experiment: MIC, broth microdilution; conditions: Escherichia coli
S. typhimurium GC 2172 = experiment: MIC, broth microdilution; conditions: Salmonella enterica, TYPHIMURIUM
S. aureus GC 1131 = experiment: MIC, broth microdilution; conditions: Staphylococcus aureus
S. aureus GC 6466 = experiment: MIC, broth microdilution; conditions: Staphylococcus aureus
S. aureus GC 1079 = experiment: MIC, broth microdilution; conditions: Staphylococcus aureus
S. aureus GC 2216 = experiment: MIC, broth microdilution; conditions: Staphylococcus aureus
S. aureus GC 6335 = experiment: MIC, broth microdilution; conditions: Staphylococcus aureus
S. epidermidis GC 4935 = experiment: MIC, broth microdilution; conditions: Staphylococcus epidermidis
E. faecalis GC 2267 = experiment: MIC, broth microdilution; conditions: Enterococcus faecalis
E. faecium GC 4556 = experiment: MIC, broth microdilution; conditions: Enterococcus faecium
E. faecium GC 2243 = experiment: MIC, broth microdilution; conditions: Enterococcus faecium
S. pneumoniae* GC 4465 = experiment: MIC, broth microdilution; conditions: Streptococcus pneumoniae
S. pneumoniae+ GC 4465 = experiment: MIC, broth microdilution; conditions: Streptococcus pneumoniae
S. pyogenes GC 4563 = experiment: MIC, broth microdilution; conditions: Streptococcus pyogenes
c. albicans GC 3066 = experiment: MIC, broth microdilution
Staph. aureus Smith = experiment: In vivo activity (oral, iv; ED50) against Staph. aureus Smith in mice
Description: Representative examples of compounds of Formula I were tested for the oral efficacy using S. aureus Smith in mice.

[1] = read-out: MINIMAL INHIBITORY CONCENTRATION MIC, pre-incubated in Mouse Serum
[2] = read-out: MINIMAL INHIBITORY CONCENTRATION MIC, pre-incubated in Water

Question: How did the MIC (E. coli GC 2231; GC2231, read-out: MINIMAL INHIBITORY CONCENTRATION MIC, pre-incubated in Mouse Serum) turn out when `CCCN(CC(=O)Nc1cc(N(C)C)c2c(c1O)C(=O)C1=C(O)[C@]3(O)C(=O)C(C(N)=O)=C(O)[C@@H](N(C)C)[C@@H]3C[C@@H]1C2)C(=O)OCOC(=O)c1cccs1` [Example 25, ({[(2-{[(5aR,6aS,7S,10aS)-9-(aminocarbonyl)-4,7-bis(dimethylamino)-1,8,10a,11-tetrahydroxy-10,12-dioxo-5,5a,6,6a,7,10,10a,12-octahydrotetracen-2-yl]amino}-2-oxoethyl)(propyl)amino]carbonyl}oxy)methyl thiophene-2-carboxylate] was run?
Answer: 2 µg/mL (≈ 2.65 µM)

Question: And the MIC (E. coli GC 2231; GC2231, read-out: MINIMAL INHIBITORY CONCENTRATION MIC, pre-incubated in Water)?
Answer: > 64 µg/mL

Question: What about the MIC (E. coli GC 2232; GC2232, read-out: MINIMAL INHIBITORY CONCENTRATION MIC, pre-incubated in Mouse Serum) of the same molecule?
Answer: 1 µg/mL (≈ 1.32 µM)

Question: And the MIC (E. coli GC 2232; GC2232, read-out: MINIMAL INHIBITORY CONCENTRATION MIC, pre-incubated in Water)?
Answer: > 64 µg/mL

Question: What about the MIC (E. coli GC 2234; GC2234, read-out: MINIMAL INHIBITORY CONCENTRATION MIC, pre-incubated in Mouse Serum) of the same molecule?
Answer: 1 µg/mL (≈ 1.32 µM)

Question: And the MIC (E. coli GC 2234; GC2234, read-out: MINIMAL INHIBITORY CONCENTRATION MIC, pre-incubated in Water)?
Answer: > 64 µg/mL

Question: What about the MIC (E. coli GC 2272; GC2272, read-out: MINIMAL INHIBITORY CONCENTRATION MIC, pre-incubated in Mouse Serum) of the same molecule?
Answer: 2 µg/mL (≈ 2.65 µM)

Question: And the MIC (E. coli GC 2272; GC2272, read-out: MINIMAL INHIBITORY CONCENTRATION MIC, pre-incubated in Water)?
Answer: 64 µg/mL (≈ 84.7 µM)

Question: And the MIC (E. coli GC 3226; GC3226, read-out: MINIMAL INHIBITORY CONCENTRATION MIC, pre-incubated in Mouse Serum)?
Answer: 2 µg/mL (≈ 2.65 µM)

Question: And the MIC (E. coli GC 3226; GC3226, read-out: MINIMAL INHIBITORY CONCENTRATION MIC, pre-incubated in Water)?
Answer: > 64 µg/mL

Question: What about the MIC (S. typhimurium GC 2172; [1]) of the same molecule?
Answer: 8 µg/mL (≈ 10.6 µM)

Question: And the MIC (S. typhimurium GC 2172; [2])?
Answer: > 64 µg/mL

Question: What about the MIC (S. aureus GC 1131; GC1131, read-out: MINIMAL INHIBITORY CONCENTRATION MIC, pre-incubated in Mouse Serum) of the same molecule?
Answer: 0.5 µg/mL (≈ 0.662 µM)

Question: And the MIC (S. aureus GC 1131; GC1131, read-out: MINIMAL INHIBITORY CONCENTRATION MIC, pre-incubated in Water)?
Answer: 0.5 µg/mL (≈ 0.662 µM)

Question: And the MIC (S. aureus GC 6466; GC6466, read-out: MINIMAL INHIBITORY CONCENTRATION MIC, pre-incubated in Mouse Serum)?
Answer: 0.25 µg/mL (≈ 0.331 µM)

Question: What about the MIC (S. aureus GC 6466; GC6466, read-out: MINIMAL INHIBITORY CONCENTRATION MIC, pre-incubated in Water) of the same molecule?
Answer: 0.25 µg/mL (≈ 0.331 µM)

Question: What about the MIC (S. aureus GC 1079; GC1079, read-out: MINIMAL INHIBITORY CONCENTRATION MIC, pre-incubated in Mouse Serum) of the same molecule?
Answer: 1 µg/mL (≈ 1.32 µM)

Question: And the MIC (S. aureus GC 1079; GC1079, read-out: MINIMAL INHIBITORY CONCENTRATION MIC, pre-incubated in Water)?
Answer: 2 µg/mL (≈ 2.65 µM)

Question: And the MIC (S. aureus GC 2216; GC2216, read-out: MINIMAL INHIBITORY CONCENTRATION MIC, pre-incubated in Mouse Serum)?
Answer: 0.5 µg/mL (≈ 0.662 µM)

Question: What about the MIC (S. aureus GC 2216; GC2216, read-out: MINIMAL INHIBITORY CONCENTRATION MIC, pre-incubated in Water) of the same molecule?
Answer: 1 µg/mL (≈ 1.32 µM)

Question: And the MIC (S. aureus GC 6335; GC6335, read-out: MINIMAL INHIBITORY CONCENTRATION MIC, pre-incubated in Mouse Serum)?
Answer: 0.5 µg/mL (≈ 0.662 µM)

Question: And the MIC (S. aureus GC 6335; GC6335, read-out: MINIMAL INHIBITORY CONCENTRATION MIC, pre-incubated in Water)?
Answer: 0.5 µg/mL (≈ 0.662 µM)

Question: And the MIC (S. epidermidis GC 4935; GC4935, read-out: MINIMAL INHIBITORY CONCENTRATION MIC, pre-incubated in Mouse Serum)?
Answer: 1 µg/mL (≈ 1.32 µM)

Question: What about the MIC (S. epidermidis GC 4935; GC4935, read-out: MINIMAL INHIBITORY CONCENTRATION MIC, pre-incubated in Water) of the same molecule?
Answer: 2 µg/mL (≈ 2.65 µM)

Question: What about the MIC (E. faecalis GC 2267; GC2267, read-out: MINIMAL INHIBITORY CONCENTRATION MIC, pre-incubated in Mouse Serum) of the same molecule?
Answer: 2 µg/mL (≈ 2.65 µM)

Question: And the MIC (E. faecalis GC 2267; GC2267, read-out: MINIMAL INHIBITORY CONCENTRATION MIC, pre-incubated in Water)?
Answer: 4 µg/mL (≈ 5.29 µM)

Question: What about the MIC (E. faecium GC 4556; GC4556, read-out: MINIMAL INHIBITORY CONCENTRATION MIC, pre-incubated in Mouse Serum) of the same molecule?
Answer: 1 µg/mL (≈ 1.32 µM)

Question: And the MIC (E. faecium GC 4556; GC4556, read-out: MINIMAL INHIBITORY CONCENTRATION MIC, pre-incubated in Water)?
Answer: 4 µg/mL (≈ 5.29 µM)

Question: What about the MIC (E. faecium GC 2243; GC2243, read-out: MINIMAL INHIBITORY CONCENTRATION MIC, pre-incubated in Mouse Serum) of the same molecule?
Answer: 0.5 µg/mL (≈ 0.662 µM)

Question: What about the MIC (E. faecium GC 2243; GC2243, read-out: MINIMAL INHIBITORY CONCENTRATION MIC, pre-incubated in Water) of the same molecule?
Answer: 1 µg/mL (≈ 1.32 µM)

Question: What about the MIC (S. pneumoniae* GC 4465; [1]) of the same molecule?
Answer: 0.12 µg/mL (≈ 0.159 µM)

Question: And the MIC (S. pneumoniae* GC 4465; [2])?
Answer: 0.25 µg/mL (≈ 0.331 µM)

Question: And the MIC (S. pneumoniae+ GC 4465; [1])?
Answer: 4 µg/mL (≈ 5.29 µM)

Question: What about the MIC (S. pneumoniae+ GC 4465; [2]) of the same molecule?
Answer: 4 µg/mL (≈ 5.29 µM)

Question: And the MIC (S. pyogenes GC 4563; GC4563, read-out: MINIMAL INHIBITORY CONCENTRATION MIC, pre-incubated in Mouse Serum)?
Answer: 0.12 µg/mL (≈ 0.159 µM)

Question: And the MIC (S. pyogenes GC 4563; GC4563, read-out: MINIMAL INHIBITORY CONCENTRATION MIC, pre-incubated in Water)?
Answer: 0.25 µg/mL (≈ 0.331 µM)

Question: What about the MIC (c. albicans GC 3066; Candida albicans, GC3066, read-out: MINIMAL INHIBITORY CONCENTRATION MIC) of the same molecule?
Answer: > 64 µg/mL

Question: What about the “MINIMAL INHIBITORY CONCENTRATION MIC” value (c. albicans GC 3066; pre-incubated in Water) of the same molecule?
Answer: >64 UG/ML

Question: And the ED50 (Staph. aureus Smith; Staphylococcus aureus, in Mus musculus, po, read-out: ED50 Staph Smith SOD)?
Answer: 15.7 mg/kg

Question: And the ED50 (Staph. aureus Smith; iv, read-out: ED50 Staph Smith SIV)?
Answer: 0.56 mg/kg
